Experimental data from ChEMBL document CHEMBL1201862, “PubChem BioAssay data set” (2004).
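Exposure lasted 48 hours, with cells grown in 96-well plates and compounds tested at five concentrations. GI50: concentration for 50% inhibition of growth.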 Activity calls are given as the source filed them. Rule as the data show it: active = GI50 up to about 1.1 µM and inactive = higher.

Assays:
Assay in all cases: DTP human tumour cell line panel, 48 h
[1] = test system: K562
[2] = test system: HCT-116
[3] = test system: OVCAR-8
[4] = test system: NCI-H226
[5] = test system: KM12
[6] = test system: COLO 205
[7] = test system: HT-29
[8] = test system: Malme-3M
[9] = test system: SF-539
[10] = test system: NCI-H460
[11] = test system: SR
[12] = test system: UACC-257
[13] = test system: DU-145
[14] = test system: ACHN
[15] = test system: UO-31
[16] = test system: SK-OV-3
[17] = test system: NCI-H23
[18] = test system: MDA-MB-435
[19] = test system: LOX IMVI
[20] = test system: SF-295

`CCc1nnc(S)n1/N=C\c1ccc(-c2ccccc2Cl)o1` was tested, and the GI50 [1] was 21.9 µM (inactive), the GI50 [2] was 23.8 µM (inactive) and the GI50 [3] was 24.3 µM (inactive). The GI50 [4] was 17.5 µM (inactive), the GI50 [5] was 28.8 µM (inactive) and the GI50 [6] was 31.3 µM (inactive). The GI50 [7] was 33.4 µM (inactive), the GI50 [8] was 55.7 µM (inactive) and the GI50 [9] was 23 µM (inactive). For the same compound, the GI50 [10] was 32.4 µM (inactive), the GI50 [11] was 19.6 µM (inactive) and the GI50 [12] was 53.5 µM (inactive). The GI50 [13] was 41.3 µM (inactive), the GI50 [14] was 60.8 µM (inactive) and the GI50 [15] was 37.7 µM (inactive). The GI50 [16] was 56.9 µM (inactive), the GI50 [17] was 26.4 µM (inactive) and the GI50 [18] was 21 µM (inactive). The GI50 [19] was 23.5 µM (inactive) and the GI50 [20] was 46.2 µM (inactive).

With `CCCCCC(O)C1C(=O)OC(C)C(O)/C=C/C=C/C=C/C=C\C=C(\C)C(O)CC(O)CC(O)CC(O)CC(O)CC(O)CC1O` (stereo not given) the GI50 [1] was > 50 µM (inactive), the GI50 [2] was > 50 µM (inactive) and the GI50 [3] was > 50 µM (inactive). The GI50 [4] was > 50 µM (inactive), the GI50 [5] was > 50 µM (inactive) and the GI50 [6] was > 50 µM (inactive). For the same compound, the GI50 [7] was > 50 µM (inactive), the GI50 [8] was > 50 µM (inactive) and the GI50 [9] was > 50 µM (inactive). For the same compound, the GI50 [10] was > 50 µM (inactive), the GI50 [11] was > 50 µM (inactive) and the GI50 [12] was 34.6 µM (inactive). The GI50 [13] was > 50 µM (inactive), the GI50 [14] was > 50 µM (inactive) and the GI50 [15] was > 50 µM (inactive). The GI50 [16] was > 50 µM (inactive), the GI50 [17] was > 50 µM (inactive) and the GI50 [18] was > 50 µM (inactive). For the same compound, the GI50 [19] was > 50 µM (inactive) and the GI50 [20] was > 50 µM (inactive).

In the case of `O=C(NC(OCc1ccccc1)(C(F)(F)F)C(F)(F)F)OCc1ccccc1`, the GI50 [1] is reported as 17.1 µM (inactive), the GI50 [2] is reported as 16.4 µM (inactive) and the GI50 [3] is reported as 16.3 µM (inactive). For the same compound, the GI50 [4] was 14.1 µM (inactive), the GI50 [5] was 16.4 µM (inactive) and the GI50 [6] was 17.8 µM (inactive). The GI50 [7] was 18 µM (inactive), the GI50 [8] was 18 µM (inactive) and the GI50 [9] was 17.3 µM (inactive). For the same compound, the GI50 [10] was 16.1 µM (inactive), the GI50 [11] was 12 µM (inactive) and the GI50 [12] was 14.2 µM (inactive). The GI50 [13] was 16.6 µM (inactive), the GI50 [14] was 15.7 µM (inactive) and the GI50 [15] was 11.2 µM (inactive). The GI50 [16] was 17.5 µM (inactive), the GI50 [17] was 12.9 µM (inactive) and the GI50 [18] was 17.3 µM (inactive). For the same compound, the GI50 [19] was 14.5 µM (inactive) and the GI50 [20] was 17.6 µM (inactive).

`CSc1nc(C)c2c(n1)SCC2` was tested, and the GI50 [1] was > 10 µM (inactive), the GI50 [2] was > 10 µM (inactive) and the GI50 [3] was > 10 µM (inactive). The GI50 [4] was > 10 µM (inactive), the GI50 [5] was > 10 µM (inactive) and the GI50 [6] was > 10 µM (inactive). For the same compound, the GI50 [7] was > 10 µM (inactive), the GI50 [8] was > 10 µM (inactive) and the GI50 [9] was > 10 µM (inactive). The GI50 [10] was > 10 µM (inactive), the GI50 [11] was > 10 µM (inactive) and the GI50 [12] was > 10 µM (inactive). The GI50 [13] was > 10 µM (inactive), the GI50 [14] was > 10 µM (inactive) and the GI50 [15] was > 10 µM (inactive). The GI50 [16] was > 10 µM (inactive), the GI50 [17] was > 10 µM (inactive) and the GI50 [18] was > 10 µM (inactive). The GI50 [19] was > 10 µM (inactive) and the GI50 [20] was > 10 µM (inactive).

With `CN1C(=O)c2ccccc2OC12C=Cc1c(ccc3ccccc13)O2` (stereo not given) the GI50 [1] was 2.82 µM (inactive), the GI50 [2] was 4.02 µM (inactive) and the GI50 [3] was 3.74 µM (inactive). The GI50 [4] was 5.94 µM (inactive), the GI50 [5] was 2.21 µM (inactive) and the GI50 [6] was 3.31 µM (inactive). The GI50 [7] was 2.92 µM (inactive), the GI50 [8] was 0.328 µM (active) and the GI50 [9] was 5.58 µM (inactive). For the same compound, the GI50 [10] was 6.59 µM (inactive), the GI50 [11] was 3.48 µM (inactive) and the GI50 [12] was 8.3 µM (inactive). For the same compound, the GI50 [13] was 8 µM (inactive), the GI50 [14] was 3.1 µM (inactive) and the GI50 [15] was 6.52 µM (inactive). The GI50 [16] was 5.78 µM (inactive), the GI50 [17] was 4.05 µM (inactive) and the GI50 [18] was 2.29 µM (inactive). For the same compound, the GI50 [19] was 5.93 µM (inactive) and the GI50 [20] was 2.45 µM (inactive).

With `CN(C)CCCNc1ccc2ncn3c4ccc(O)cc4c(=O)c1c23` the GI50 [1] was 1.35 µM (inactive), the GI50 [2] was 0.458 µM (active) and the GI50 [3] was 1.07 µM (active). The GI50 [4] was 0.483 µM (active), the GI50 [5] was 3.14 µM (inactive) and the GI50 [6] was 1.11 µM (active). For the same compound, the GI50 [7] was 1.3 µM (inactive), the GI50 [8] was 2.83 µM (inactive) and the GI50 [9] was 0.506 µM (active). For the same compound, the GI50 [10] was 0.105 µM (active), the GI50 [11] was < 0.0189 µM (active) and the GI50 [12] was 8.09 µM (inactive). For the same compound, the GI50 [13] was 0.638 µM (active), the GI50 [14] was 0.158 µM (active) and the GI50 [15] was 1.35 µM (inactive). For the same compound, the GI50 [16] was 0.321 µM (active), the GI50 [17] was 0.716 µM (active) and the GI50 [18] was 4.88 µM (inactive). For the same compound, the GI50 [19] was 0.607 µM (active) and the GI50 [20] was 0.708 µM (active).
